Patent US10131652B2, “Pyrimidinyloxy benzene derivatives as herbicides” (E. I. DU PONT DE NEMOURS AND COMPANY, priority 2014, dated 2018)

Columns and labels:
Format in all cases: in vivo
[1] = test system: barnyardgrass (Echinochloa crus-galli); assay: Test B pre-/postemergence plant response
How it was run: (§1)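 Visual injury scores on a 0–100 scale (100 = complete control) relative to untreated plants, taken about 10 days post-treatment in greenhouse. Treatments were a directed preemergence soil spray and a postemergence spray at one- to two-leaf stage, using surfactant-containing solvent formulation.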

corn (Zea mays) = assay: Test B pre-/postemergence plant response
How it was run: as §1

[2] = test system: giant foxtail (Setaria faberii); assay: Test B pre-/postemergence plant response
How it was run: as §1

[3] = test system: large (Lg) crabgrass (Digitaria sanguinalis); assay: Test B pre-/postemergence plant response
How it was run: as §1

[4] = test system: pigweed (Amaranthus retroflexus); assay: Test B pre-/postemergence plant response
How it was run: as §1

[5] = test system: velvetleaf (Abutilon theophrasti); assay: Test B pre-/postemergence plant response
How it was run: as §1

[6] = test system: wheat (Triticum aestivum); assay: Test B pre-/postemergence plant response
How it was run: as §1

[7] = test system: barnyardgrass (Echinochloa crus-galli); assay: Test C flooded paddy test plant response; details: Flood, 250 g ai/ha; scale of 0 to 100 where 0 is no effect and 100 is complete control; 13 to 15 days
How it was run: (§2)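 Readout is a visual 0–100 score (100 = complete control) versus controls at 13–15 days. Plants at 2-leaf stage, flooded to 3 cm, treated through paddy water.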

[8] = test system: ducksalad (Heteranthera limosa); assay: Test C flooded paddy test plant response; details: Flood, 250 g ai/ha; scale of 0 to 100 where 0 is no effect and 100 is complete control; 13 to 15 days
How it was run: as §2

rice (Oryza sativa) = assay: Test C flooded paddy test plant response; details: Flood, 250 g ai/ha; scale of 0 to 100 where 0 is no effect and 100 is complete control; 13 to 15 days
How it was run: as §2

[9] = test system: small-flower umbrella sedge (Cyperus difformis); assay: Test C flooded paddy test plant response; details: Flood, 250 g ai/ha; scale of 0 to 100 where 0 is no effect and 100 is complete control; 13 to 15 days
How it was run: as §2

[10] = test system: Italian ryegrass (Lolium multiflorum); assay: Test B pre-/postemergence plant response
How it was run: as §1

kochia (Kochia scoparia) = assay: Test B pre-/postemergence plant response
How it was run: as §1

[11] = test system: ragweed (common ragweed, Ambrosia elatior); assay: Test B pre-/postemergence plant response
How it was run: as §1

[12] = test system: blackgrass (Alopecurus myosuroides); assay: Test B postemergence plant response
How it was run: (§3)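 Visual injury ratings, 0 = no effect to 100 = complete control, versus untreated controls approximately 10 days after postemergence spraying in greenhouse. Plants were at one- to two-leaf stage, 2 to 10 cm tall, in loam soil/sand blend; a dash denotes no result.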

[13] = test system: galium (catchweed bedstraw, Galium aparine); assay: Test B postemergence plant response
How it was run: as §3

[14] = 125 g ai/ha, postemergence, 0 to 100 scale, 0 no effect, 100 complete control
[15] = Postemergence, 500 g ai/ha, 0 to 100 scale (0 no effect, 100 complete control)
[16] = Preemergence, 125 g ai/ha, 0 to 100 scale where 0 is no effect and 100 is complete control
[17] = Preemergence, 500 g ai/ha, 0 to 100 scale (0 no effect, 100 complete control)
[18] = 31 g ai/ha, Preemergence, 0 to 100 scale where 0 is no effect and 100 is complete control
[19] = Postemergence, 31 g ai/ha, 0 to 100 scale (0 no effect, 100 complete control)
[20] = Preemergence, 125 g ai/ha, 0 to 100 scale (0 no effect, 100 complete control)

Clc1cnc(Oc2ccccc2-c2cccc(Cl)n2)nc1 [Compound 16]
Plant response rating, Barnyardgrass [1, 14]: 0 | Plant response rating, Barnyardgrass [1, 15]: 0 | Plant response rating, Barnyardgrass [1, 16]: 0 | Plant response rating, Barnyardgrass [1, 17]: 0 | Plant response rating, Corn (corn (Zea mays); [14]): 0 | Plant response rating, Corn (corn (Zea mays); [15]): 0 | Plant response rating, Corn (corn (Zea mays); [16]): 0 | Plant response rating, Corn (corn (Zea mays); [17]): 0 | Plant response rating, Foxtail, Giant [2, 14]: 0 | Plant response rating, Foxtail, Giant [2, 15]: 0 | Plant response rating, Foxtail, Giant [2, 16]: 0 | Plant response rating, Foxtail, Giant [2, 17]: 10 | Plant response rating, Crabgrass, Large [3, 14]: 0 | Plant response rating, Crabgrass, Large [3, 15]: 0 | Plant response rating, Crabgrass, Large [3, 16]: 0 | Plant response rating, Crabgrass, Large [3, 17]: 10 | Plant response rating, Pigweed [4, 14]: 0 | Plant response rating, Pigweed [4, 15]: 30 | Plant response rating, Pigweed [4, 16]: 0 | Plant response rating, Pigweed [4, 17]: 20 | Plant response rating, Velvetleaf [5, 14]: 0 | Plant response rating, Velvetleaf [5, 15]: 20 | Plant response rating, Velvetleaf [5, 16]: 0 | Plant response rating, Velvetleaf [5, 17]: 20 | Plant response rating, Wheat [6, 14]: 0 | Plant response rating, Wheat [6, 15]: 0 | Plant response rating, Wheat [6, 16]: 0 | Plant response rating, Wheat [6, 17]: 0 | Barnyardgrass plant response rating [7]: 0 | Ducksalad plant response rating [8]: 0 | Rice plant response rating (rice (Oryza sativa)): 0 | Sedge, Umbrella plant response rating [9]: 0

Clc1cccc(-c2ccccc2Oc2ncc(Br)cn2)n1 [Compound 17]
Plant response rating, Barnyardgrass [1, 14]: 0 | Plant response rating, Barnyardgrass [1, 15]: 0 | Plant response rating, Barnyardgrass [1, 16]: 0 | Plant response rating, Barnyardgrass [1, 17]: 0 | Plant response rating, Corn (corn (Zea mays); [14]): 0 | Plant response rating, Corn (corn (Zea mays); [15]): 0 | Plant response rating, Corn (corn (Zea mays); [16]): 0 | Plant response rating, Corn (corn (Zea mays); [17]): 0 | Plant response rating, Foxtail, Giant [2, 14]: 0 | Plant response rating, Foxtail, Giant [2, 15]: 0 | Plant response rating, Foxtail, Giant [2, 16]: 0 | Plant response rating, Foxtail, Giant [2, 17]: 0 | Plant response rating, Crabgrass, Large [3, 14]: 0 | Plant response rating, Crabgrass, Large [3, 15]: 0 | Plant response rating, Crabgrass, Large [3, 16]: 0 | Plant response rating, Crabgrass, Large [3, 17]: 10 | Plant response rating, Pigweed [4, 14]: 0 | Plant response rating, Pigweed [4, 15]: 10 | Plant response rating, Pigweed [4, 16]: 0 | Plant response rating, Pigweed [4, 17]: 0 | Plant response rating, Velvetleaf [5, 14]: 0 | Plant response rating, Velvetleaf [5, 15]: 20 | Plant response rating, Velvetleaf [5, 16]: 0 | Plant response rating, Velvetleaf [5, 17]: 10 | Plant response rating, Wheat [6, 14]: 0 | Plant response rating, Wheat [6, 15]: 0 | Plant response rating, Wheat [6, 16]: 0 | Plant response rating, Wheat [6, 17]: 0 | Barnyardgrass plant response rating [7]: 0 | Ducksalad plant response rating [8]: 0 | Rice plant response rating (rice (Oryza sativa)): 0 | Sedge, Umbrella plant response rating [9]: 0

FC(F)c1ccc(-c2ccccc2Oc2ncc(Cl)cn2)o1 [Compound 239]
Plant response rating, Ryegrass, Italian [10, 18]: 0 | Plant response rating, Ryegrass, Italian [10, 14]: 0 | Plant response rating, Ryegrass, Italian [10, 19]: 0 | Ryegrass, Italian plant response rating [10, 20]: 0 | Plant response rating, Barnyardgrass [1, 18]: 0 | Plant response rating, Barnyardgrass [1, 14]: 0 | Plant response rating, Barnyardgrass [1, 19]: 0 | Barnyardgrass plant response rating [1, 20]: 0 | Plant response rating, Corn (corn (Zea mays); [14]): 20 | Plant response rating, Corn (corn (Zea mays); [19]): 0 | Plant response rating, Foxtail, Giant [2, 18]: 0 | Plant response rating, Foxtail, Giant [2, 14]: 0 | Plant response rating, Foxtail, Giant [2, 19]: 0 | Foxtail, Giant plant response rating [2, 20]: 0 | Plant response rating, Kochia (kochia (Kochia scoparia); [18]): 0 | Plant response rating, Kochia (kochia (Kochia scoparia); [14]): 0 | Plant response rating, Kochia (kochia (Kochia scoparia); [19]): 0 | Kochia plant response rating (kochia (Kochia scoparia); [20]): 0 | Plant response rating, Pigweed [4, 18]: 0 | Plant response rating, Pigweed [4, 14]: 20 | Plant response rating, Pigweed [4, 19]: 0 | Pigweed plant response rating [4, 20]: 0 | Plant response rating, Ragweed [11, 18]: 0 | Plant response rating, Ragweed [11, 14]: 0 | Plant response rating, Ragweed [11, 19]: 0 | Ragweed plant response rating [11, 20]: 0 | Plant response rating, Wheat [6, 14]: 0 | Plant response rating, Wheat [6, 19]: 0 | Plant response rating, Blackgrass [12, 14]: 0 | Plant response rating, Blackgrass [12, 19]: 0 | Plant response rating, Galium [13, 14]: 0 | Plant response rating, Galium [13, 19]: 0 | Barnyardgrass plant response rating [7]: 0 | Ducksalad plant response rating [8]: 0 | Rice plant response rating (rice (Oryza sativa)): 0 | Sedge, Umbrella plant response rating [9]: 0
